In article PMC11595589, “A Pharmacokinetic and Bioavailability Study of Ecklonia cava Phlorotannins Following Intravenous and Oral Administration in Sprague–Dawley Rats” (Marine Drugs, 2024):

Test: Relative polarity by RP-HPLC of EK-ECP
Type: physicochemical
Settings: RP-HPLC chromatogram of EK-ECP
Method: A further detailed analysis of the phlorotannins present in EK-ECP was performed to identify and quantify the major components (individual phlorotannins) by reversed phase high performance liquid chromatography (RP-HPLC). A representative HPLC (Column: CAPCELL PAK C18; Detector: UV 234 nm) chromatogram and the identification of major components are presented in Figure 3. As shown in the chromatogram, dieckol at retention time 15.65 min was the most notable compound in EK-ECP. The chromatogram could be divided to relatively high (6–13 min), mid (13~20 min) and low polarity region (20~27 min) and each region could be represented by the regionally most notable peak 8,8′-bieckol, dieckol and PFF-A, respectively. These three phlorotannins were selected for monitoring the blood samples upon administration of EK-ECP during pharmacokinetic (PK) experiment. Other minor phlorotannins than the three notable ones identified were 2-O-(2,4,6-Trihydroxyphenyl)-6,6′-bieckol (7.217 min), 6,6′-bieckol (7.717 min), 7-phloroeckol (7.717 min), 2-phloroeckol (9.883 min), eckol (10.450 min), dioxinodehydroeckol (23.100 min) and fucofuroeckol A (23.650 min). Other notable peaks, such as those at 12.133, 17.483, 20.833, and 21.250 min, remain unidentified due to the technical challenges in isolating and identifying the corresponding single compounds.
The hydroxyl protons observed in the phlorotannin structures are attached to aromatic rings, resulting in distinct downfield shifts (near 9 ppm) due to the electron-withdrawing effects of the aromatic system. This contrasts with the hydroxyl groups found in aliphatic alcohols in general. […]
^1H NMR (500 MHz) was acquired on Bruker Avance III 500 MHz NMR spectrometer (Bruker Corporation, Billerica, MA, USA) using DMSO-d6 as a solvent. […] To quantify the total polyphenolic content of EK-ECP, the Folin–Ciocalteu reagent was reacted with EK-ECP dissolved in 50% aqueous ethanol, and the resulting solution was analyzed using a UV–Vis spectrophotometer (SPECTROstarNano, BMG Labtech, Ortenberg, Germany) at 725 nm. […]

| Compound | relative polarity within the phlorotannin extract |
| --- | --- |
| Oc1cc(O)cc(Oc2c(O)cc(O)c3c2Oc2c(cc(O)c(-c4c(O)cc5c(c4O)Oc4c(Oc6cc(O)cc(O)c6)c(O)cc(O)c4O5)c2O)O3)c1 [8,8′-bieckol] | the most hydrophilic |
| Oc1cc(O)cc(Oc2c(O)cc(O)c3c2Oc2c(O)cc4oc5c(Oc6cc(O)cc(O)c6)c(O)cc(O)c5c4c2O3)c1 [PFF-A, phlorofucofuroeckol-A] | the most lipophilic |
| Oc1cc(O)cc(Oc2c(O)cc(O)c3c2Oc2c(O)cc(Oc4c(O)cc(Oc5c(O)cc(O)c6c5Oc5c(O)cc(O)cc5O6)cc4O)cc2O3)c1 [dieckol] | in between |
